The test system of this experiment is murine NIH 3T3 cells. Nature of the experiment: Growth inhibitory effects of prodrugs on NIH 3T3 cells in culture, with or without esterase-containing brain homogenate. The class given is cell-based. The protocol:
The antifolate drug methotrexate was conjugated with a variety of polar lipid carriers via specific linker moieties having specific reactive functional groups. […] The compounds were tested for their growth inhibitory effects on murine NIH 3T3 cells growing in cell culture. […] […] In a second set of experiments was included in the growth media an amount of a brain homogenate containing an enzymatically-active esterase.

On to `CN(Cc1cnc2nc(N)nc(N)c2n1)c1ccc(C(=O)N[C@@H](CCC(=O)O)C(=O)O)cc1` [Mtx, methotrexate], for which the “# cells/plate” value by setting is: (drug/FBS, cells incubated 1 hour at 37° C., cell growth and survival determined 70 hours after drug addition) 0.16 × 10^6 cells/plate; (drug/FBS, cells incubated 2 hours at 37° C., cell growth and survival determined 72 hours after drug addition) 0.13 × 10^6 cells/plate; (drug/brain extract, cells incubated 1 hour at 37° C., cell growth and survival determined 70 hours after drug addition) 0.09 × 10^6 cells/plate; (drug/brain extract, cells incubated 2 hours at 37° C., cell growth and survival determined 72 hours after drug addition) 0.06 × 10^6 cells/plate.
